Experiments:
Prolyl endopeptidase = Prolyl endopeptidase (Sus scrofa, UniProt P23687)
Description: In vitro inhibition of prolyl oligopeptidase (POP) from pig brain

[1] = Partition coefficient (logP); type: physicochemical; details: octanol/water
[2] = biological target: Prolyl endopeptidase (Sus scrofa) (UniProt P23687); test: Compound was tested for in vitro inhibition of prolyl oligopeptidase (POP) from pig brain at 0.1 mM
Prolyl endopeptidase (Sus scrofa), sequence (P23687 whole entry, looked up): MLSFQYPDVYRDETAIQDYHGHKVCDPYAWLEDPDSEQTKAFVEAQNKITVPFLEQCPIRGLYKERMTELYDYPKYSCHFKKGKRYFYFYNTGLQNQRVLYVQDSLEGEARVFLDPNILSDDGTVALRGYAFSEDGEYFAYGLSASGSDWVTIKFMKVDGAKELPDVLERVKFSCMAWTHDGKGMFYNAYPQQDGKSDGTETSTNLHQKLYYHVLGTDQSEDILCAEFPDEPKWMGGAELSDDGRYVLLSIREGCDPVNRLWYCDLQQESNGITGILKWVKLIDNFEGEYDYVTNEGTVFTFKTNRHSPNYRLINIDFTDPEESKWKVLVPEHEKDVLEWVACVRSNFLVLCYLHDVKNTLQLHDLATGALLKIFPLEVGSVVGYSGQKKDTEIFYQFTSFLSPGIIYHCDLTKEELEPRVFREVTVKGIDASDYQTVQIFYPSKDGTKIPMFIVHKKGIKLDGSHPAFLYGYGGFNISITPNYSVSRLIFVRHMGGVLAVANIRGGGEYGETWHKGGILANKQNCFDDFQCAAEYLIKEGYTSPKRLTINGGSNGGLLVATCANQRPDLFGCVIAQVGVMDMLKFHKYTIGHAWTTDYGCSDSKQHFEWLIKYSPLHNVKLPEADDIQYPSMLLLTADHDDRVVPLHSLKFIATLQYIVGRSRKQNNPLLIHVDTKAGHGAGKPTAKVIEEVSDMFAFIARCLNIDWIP

Prolyl endopeptidase, sequence (P23687 whole entry): as the sequence (P23687 whole entry, looked up) above

IC50 (Prolyl endopeptidase) [nM]	logP [1]	inhibition [2] [%]	SMILES
39			C[C@H](NC(=O)c1cccc(C(=O)N2CCC[C@H]2C(=O)N2CCCC2)c1)C(=O)N1CCCC1
640			COC(=O)[C@H]1CCCN1C(=O)c1cccc(C(=O)N2CCC[C@H]2C(=O)C2CCCC2)c1
87			C[C@H](NC(=O)c1cccc(C(=O)N[C@H](C)C(=O)N2CCCC2)c1)C(=O)N1CCCC1
1.1	0.8		N#C[C@H]1CCCN1C(=O)[C@@H]1CCCN1C(=O)c1cccc(C(=O)N2CCC[C@@H]2C(=O)C2CCCC2)c1
110			CSCC[C@H](NC(=O)c1cccc(C(=O)N[C@H](CCSC)C(=O)N2CCCC2)c1)C(=O)N1CCCC1
31			O=C(NCc1ccccc1)[C@@H]1CCCN1C(=O)c1cccc(C(=O)N2CCC[C@@H]2C(=O)N2CCCC2)c1
		54	CC(=O)[C@H]1CCCN1C(=O)c1cccc(C(=O)N2CCC[C@H]2C(C)=O)c1
0.57			CC(C)(CC(=O)N1CCC[C@H]1C(=O)C1CCCC1)CC(=O)N1CCC[C@H]1C(=O)N1CCC[C@H]1C#N
1.2			CC(=O)[C@H]1CCCN1C(=O)c1cccc(C(=O)N2CCC[C@H]2C(=O)N2CCC[C@@H]2C(=O)CO)c1
640			O=C(NCC(=O)N1CCCC1)c1cccc(C(=O)NCC(=O)N2CCCC2)c1
18			O=C(c1ccccc1)[C@H]1CCCN1C(=O)c1cccc(C(=O)N2CCC[C@H]2C(=O)N2CCCC2)c1
81			O=C(N[C@@H](Cc1ccccc1)C(=O)N1CCCC1)c1cccc(C(=O)N[C@H](Cc2ccccc2)C(=O)N2CCCC2)c1
	0.7		CC(C)(CC(=O)N1CCC[C@H]1C(=O)C1CCCC1)CC(=O)N1CCC[C@H]1C(=O)N1CCC[C@H]1C(=O)CO
78	2.7		O=C(C1CCCC1)[C@H]1CCCN1C(=O)c1cccc(C(=O)N2CCC[C@H]2C(=O)C2CCCC2)c1
0.72			N#C[C@H]1CCCN1C(=O)[C@@H]1CCCN1C(=O)c1cccc(C(=O)N2CCC[C@@H]2C(=O)C2CCCCC2)c1
1.6	0.3		CC(C)C(=O)[C@H]1CCCN1C(=O)c1cccc(C(=O)N2CCC[C@H]2C(=O)N2CCC[C@@H]2C#N)c1
23			O=C([C@H]1CCCN1C(=O)c1cccc(C(=O)N2CCC[C@H]2C(=O)N2CCCCCC2)c1)N1CCCC1
0.61	0.2		O=C(CO)[C@H]1CCCN1C(=O)[C@@H]1CCCN1C(=O)c1cccc(C(=O)N2CCC[C@@H]2C(=O)C2CCCC2)c1
33			O=C([C@H]1CCCN1C(=O)c1cccc(C(=O)N2CCC[C@H]2C(=O)N2CCNCC2)c1)N1CCCC1
65			CC(=O)[C@H]1CCCN1C(=O)c1cccc(C(=O)N2CCC[C@H]2C(=O)N2CCCC2)c1
	-0.2		O=C([C@@H]1CCCN1C(=O)c1cccc(C(=O)N2CCC[C@H]2C(=O)N2CCCC2)c1)N1CCCC1
54			COC(=O)[C@H]1CCCN1C(=O)c1cccc(C(=O)N2CCC[C@H]2C(=O)N2CCCC2)c1
14			O=C(C1CCCC1)[C@H]1CCCN1C(=O)c1cccc(C(=O)N2CCC[C@H]2C(=O)N2CCCC2)c1
4.2	-0.6		CC(=O)[C@H]1CCCN1C(=O)c1cccc(C(=O)N2CCC[C@H]2C(=O)N2CCC[C@@H]2C#N)c1
1.3	1.1		N#C[C@H]1CCCN1C(=O)[C@@H]1CCCN1C(=O)c1cccc(C(=O)N2CCC[C@@H]2C(=O)c2ccccc2)c1
170			CC(C)(C)OC(=O)N1CCN(C(=O)[C@H]2CCCN2C(=O)c2cccc(C(=O)N3CCC[C@H]3C(=O)N3CCCC3)c2)CC1
0.39			O=C(CO)[C@@H]1CCCN1C(=O)[C@@H]1CCCN1C(=O)c1cccc(C(=O)N2CCC[C@H]2C(=O)N2CCCC2)c1
